Results as given in ChEMBL document CHEMBL1151966, “Okundoperoxide, a bicyclic cyclofarnesylsesquiterpene endoperoxide from Scleria striatinux with antiplasmodial activity” (J Nat Prod, 2009).
≈ marks a conversion by molar mass, not a printed value.

Columns and labels:
[1] = Cytotoxicity against human erythrocytes; assay type: cell-based; conditions: Erythrocyte
Plasmodium falciparum [2] = test: Antiplasmodial activity after 24 hrs against chloroquine-resistant Plasmodium falciparum W2 infected human erythrocytes by [3H]hypoxanthine uptake; assay type: functional, organism-based
Plasmodium falciparum [3] = test: Antiplasmodial activity after 24 hrs against chloroquine-sensitive Plasmodium falciparum D6 infected human erythrocytes by [3H]hypoxanthine uptake; assay type: functional, organism-based
Plasmodium falciparum [4] = test: Antiplasmodial activity after 24 hrs against drug-sensitive Plasmodium falciparum NF54 infected human erythrocytes by [3H]hypoxanthine uptake; assay type: functional, organism-based
Plasmodium falciparum [5] = test: Antiplasmodial activity after 24 hrs against chloroquine,pyrimethamine-resistant Plasmodium falciparum K1 infected human erythrocytes by [3H]hypoxanthine uptake; assay type: functional, organism-based

C/C(=C\CO)[C@H]1C[C@H]2C(C)(C)C(=O)C=C[C@]2(C)OO1 (relative stereo) [OKUNDOPEROXIDE]
IC50 [1]: 22.7 µg/mL (≈ 85.2 µM) | IC50 (Plasmodium falciparum [2]): 0.47 µg/mL (≈ 1.76 µM) | IC50 (Plasmodium falciparum [3]): 0.483 µg/mL (≈ 1.81 µM) | IC50 (Plasmodium falciparum [4]): 1.31 µg/mL (≈ 4.91 µM) | IC50 (Plasmodium falciparum [5]): 1.5 µg/mL (≈ 5.62 µM)

COc1cc([C@@H]2c3cc4c(cc3[C@H](O)[C@H]3COC(=O)[C@H]23)OCO4)cc(OC)c1OC [PODOFILOX]
IC50 [1]: 0.007 µg/mL (≈ 0.0169 µM)
